In publication PMC11855086, “Synthesis, Antimicrobial Activity, and Tyrosinase Inhibition by Multifunctional 3,4-Dihydroxy-Phenyl Peptidomimetics” (International Journal of Molecular Sciences, 2025):
≈ marks a conversion by molar mass, not a printed value.

Tests used:
[1] = tested on: S. aureus (ATCC 23235); assay: microbe, parasite or virus in culture; assay type: cell-based; settings: Staphylococcus aureus; for MBC: ATCC23235; for MIC: ATCC23235, 24 h
[2] = tested on: P. aeruginosa (ATCC 15442); assay: MIC and MBC, microtiter plate technique; assay type: cell-based; settings: ATCC15442, Pseudomonas aeruginosa; for MIC: 24 h, resazurin; for MBC: TTC
[3] = tested on: E. coli R2 (ATCC 39544); assay: MIC and MBC, microtiter plate technique; assay type: cell-based; settings: Escherichia coli; for MBC: ATCC39544; for MIC: ATCC39544, 24 h
[4] = tested on: E. cloacae (ATCC 49141); assay: MIC and MBC, microtiter plate technique; assay type: cell-based; settings: ATCC49141, Enterobacter cloacae; for MIC: 24 h, resazurin; for MBC: TTC
[5] = tested on: E. coli K12 (ATCC 25404); assay: MIC and MBC, microtiter plate technique; assay type: cell-based; settings: Escherichia coli; for MBC: ATCC25404; for MIC: ATCC25404, 24 h
[6] = tested on: A. baumannii (ATCC 17978); assay: MIC and MBC, microtiter plate technique; assay type: cell-based; settings: ATCC17978, Acinetobacter baumannii; for MIC: 24 h, resazurin; for MBC: TTC
[7] = tested on: E. coli R4 (ATCC 39543); assay: MIC and MBC, microtiter plate technique; assay type: cell-based; settings: Escherichia coli; for MBC: ATCC39543; for MIC: ATCC39543, 24 h
[8] = tested on: E. coli R3 (ATCC 11775); assay: MIC and MBC, microtiter plate technique; assay type: cell-based; settings: Escherichia coli; for MIC: ATCC11775, 24 h, resazurin; for MBC: ATCC11775, TTC
[9] = biological target: T1, mushroom tyrosinase (mTYR) (Agaricus bisporus, UniProt C7FF04); assay: Tyrosinase assay with L-DOPA as substrate (absorbance at 475 nm); assay type: biochemical; settings: 100 µM compound
T1 construct: purchased Sigma-Aldrich (Poznan, Poland); host or cells: Agaricus bisporus (extracted natural enzyme)
Excerpt: Tyrosinase (Tyr) extracted from Agaricus bisporus (mushroom tyrosinase, mTYR) is commonly used as a model enzyme for human Tyr due to its high purity, stability, and commercial availability. It is frequently used in the selection of TYR inhibitors. Following established literature protocols, L-tyrosine and L-DOPA, which serve as substrates for monophenol and diphenol oxidation, respectively, were used to assess the tyrosinase inhibitory activity of synthesized target compounds [21].
Tyrosinase (Tyr) activity was measured using L-DOPA as substrate and phosphate buffer solution (PBS) as blank control, following the method described by Min He et al. (2022) with an ultraviolet spectrophotometer (Carry-300, Agilent Life Sciences and Chemical Analysis, Santa Clara, CA, USA). […] Before the experiment, 2.9 mL of PBS and 0.1 mL of DMSO were used to account for the influence of the background solvent. The inhibitor solution (100 µL), substrate solution (2.8 mL), and Tyr solution (100 µL) were then added to a quartz colorimetric cuvette. After a one-minute mixing period, the absorption spectra of the mixture were continuously recorded at 475 nm using the UV spectrophotometer (Carry-300) for 5 min over a period of every 30 s. The tyrosinase inhibition rate was calculated as follows:Relative enzyme activity (%) = (A1 − A2)/A1 × 100
A1 = Absorbance of L-DOPA and inhibitor.
A2 = Absorbance of L-DOPA, inhibitor, and tyrosinase.

[10] = MTT cytotoxicity assay; assay type: cell-based; settings: mouse, BALB/c3T3 mouse embryonic fibroblast cells; 1.0 µM, 24 h; read-out: cell viability
Protocol: Following the completion of MIC and MBC assays on the analyzed bacterial strains, and subsequent treatment with Fpg protein modified by peptidomimetics along with selected antibiotics, a further MTT assay was conducted to evaluate the cytotoxicity of the compounds employing the BALB/c3T3 mouse embryonic fibroblast cell line (Figure 10).
BALB/c3T3 mouse embryonic fibroblast cells were exposed to peptidomimetics across concentrations ranging from 0.5 µM to 3.5 µM and incubated for a duration of 24 h. […] The highest concentrations (2.5 µM and 3.5 µM) inhibited cell viability, which was reduced to 20.2% and 1.0%, respectively (Figure 10 and Figure S40 in the Supplementary Materials).
The cytotoxic effects of aldehyde 1 and peptidomimetics 5a–r on BALB/c3T3 mouse fibroblast cells were assessed utilizing the MTT assay following a 24 h incubation period across five different concentrations (0.5, 1.0, 1.5, 2.5, and 3.5 µM). The MTT assay is predicated upon the capacity of mitochondrial dehydrogenase enzymes to convert the water-soluble tetrazolium salt, 3-([…])-2,5-diphenyltetrazolium bromide (MTT), into an insoluble formazan product, manifesting as dark blue crystals. These formazan crystals are then dissolved in DMSO or isopropanol, forming a colored solution whose intensity is measured spectrophotometrically within the wavelength range of 492–570 nm. The amount of MTT reduced corresponds to the oxidative activity of the mitochondria, which is directly proportional to the number of metabolically active cells in the population under defined experimental conditions. The MTT assay can also be used to assess cell viability in non-dividing metabolically active cells. It is one of the most widely used methods to assess cytotoxic activity and is recommended by international standards organizations as a reference method.

T1 sequence (C7FF04 1-392 limits assumed): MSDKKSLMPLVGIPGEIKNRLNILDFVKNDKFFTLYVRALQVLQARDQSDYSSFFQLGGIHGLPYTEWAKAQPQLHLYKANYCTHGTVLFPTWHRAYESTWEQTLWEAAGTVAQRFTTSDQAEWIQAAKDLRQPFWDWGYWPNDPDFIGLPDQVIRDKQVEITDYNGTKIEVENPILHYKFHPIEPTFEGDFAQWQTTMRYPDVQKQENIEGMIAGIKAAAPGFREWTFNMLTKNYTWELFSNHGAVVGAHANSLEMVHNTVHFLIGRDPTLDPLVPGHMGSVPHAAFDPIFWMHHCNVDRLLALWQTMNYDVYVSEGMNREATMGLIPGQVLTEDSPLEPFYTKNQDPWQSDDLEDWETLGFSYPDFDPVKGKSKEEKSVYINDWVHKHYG

| SMILES | MBC [1] | MIC [1] | MIC [2] | MBC [2] | MBC [3] | MIC [3] | MIC [4] | MBC [4] | MBC [5] | MIC [5] | MIC [6] | MBC [6] | MBC [7] | MIC [7] | MIC [8] | MBC [8] | inhibition at 100 µM [9] | viability at 24 h, 1 µM [10] |
| --- | --- | --- | --- | --- | --- | --- | --- | --- | --- | --- | --- | --- | --- | --- | --- | --- | --- | --- |
| CC(=O)N(C1CCCCC1)C(C(=O)NCc1ccc(F)cc1)c1ccc(O)c(O)c1 (centres unmarked) [Compound 5o, 2-(N-cyclohexylacetamido)-2-(3,4-dihydroxyphenyl)-N-(4-fluorobenzyl)acetamide] | 0.81 µM (≈ 0.336 µg/mL) | 0.74 µM (≈ 0.307 µg/mL) | 0.73 µM (≈ 0.303 µg/mL) | 0.86 µM (≈ 0.356 µg/mL) | 1.23 µM (≈ 0.51 µg/mL) | 0.79 µM (≈ 0.327 µg/mL) | 0.8 µM (≈ 0.332 µg/mL) | 0.84 µM (≈ 0.348 µg/mL) | 0.86 µM (≈ 0.356 µg/mL) | 0.3 µM (≈ 0.124 µg/mL) | 0.75 µM (≈ 0.311 µg/mL) | 0.81 µM (≈ 0.336 µg/mL) | 1.47 µM (≈ 0.609 µg/mL) | 1.52 µM (≈ 0.63 µg/mL) | 1.01 µM (≈ 0.419 µg/mL) | 1.45 µM (≈ 0.601 µg/mL) | > 10% | – |
| COc1ccc(CN(C(=O)Cc2ccccc2)C(C(=O)NCc2ccc(F)cc2)c2ccc(O)c(O)c2)cc1 (centres unmarked) [Compound 5c, 2-(3,4-dihydroxyphenyl)-N-(4-fluorobenzyl)-2-(N-(4-methoxybenzyl)-2-phenylacetamido)-acetamide] | 1 µM (≈ 0.529 µg/mL) | 0.96 µM (≈ 0.507 µg/mL) | 1.04 µM (≈ 0.55 µg/mL) | 1.09 µM (≈ 0.576 µg/mL) | 1.04 µM (≈ 0.55 µg/mL) | 1 µM (≈ 0.529 µg/mL) | 1.08 µM (≈ 0.571 µg/mL) | 1.11 µM (≈ 0.587 µg/mL) | 0.66 µM (≈ 0.349 µg/mL) | 0.45 µM (≈ 0.238 µg/mL) | 0.84 µM (≈ 0.444 µg/mL) | 0.94 µM (≈ 0.497 µg/mL) | 2.36 µM (≈ 1.25 µg/mL) | 1.98 µM (≈ 1.05 µg/mL) | 1.61 µM (≈ 0.851 µg/mL) | 1.79 µM (≈ 0.946 µg/mL) | < 10% | 60.2% |
| CCCCN(C(=O)Cc1ccccc1)C(C(=O)NCc1ccc(F)cc1)c1ccc(O)c(O)c1 (centres unmarked) [Compound 5i] | 1.05 µM (≈ 0.488 µg/mL) | 0.99 µM (≈ 0.46 µg/mL) | 1.23 µM (≈ 0.571 µg/mL) | 1.26 µM (≈ 0.585 µg/mL) | 1.16 µM (≈ 0.539 µg/mL) | 1.17 µM (≈ 0.544 µg/mL) | 1.21 µM (≈ 0.562 µg/mL) | 1.27 µM (≈ 0.59 µg/mL) | 1.05 µM (≈ 0.488 µg/mL) | 0.6 µM (≈ 0.279 µg/mL) | 0.99 µM (≈ 0.46 µg/mL) | 1.05 µM (≈ 0.488 µg/mL) | 2.51 µM (≈ 1.17 µg/mL) | 2.31 µM (≈ 1.07 µg/mL) | 1.92 µM (≈ 0.892 µg/mL) | 2.13 µM (≈ 0.989 µg/mL) | > 10% | – |
| CCCCN(C(C)=O)C(C(=O)NCc1ccccc1)c1ccc(O)c(O)c1 (centres unmarked) [Compound 5p, N-benzyl-2-(N-butylacetamido)-2-(3,4-dihydroxyphenyl)acetamide] | 0.94 µM (≈ 0.348 µg/mL) | 0.87 µM (≈ 0.322 µg/mL) | 0.88 µM (≈ 0.326 µg/mL) | 0.94 µM (≈ 0.348 µg/mL) | 1.51 µM (≈ 0.559 µg/mL) | 0.84 µM (≈ 0.311 µg/mL) | 0.86 µM (≈ 0.319 µg/mL) | 0.94 µM (≈ 0.348 µg/mL) | 0.89 µM (≈ 0.33 µg/mL) | 0.33 µM (≈ 0.122 µg/mL) | 0.87 µM (≈ 0.322 µg/mL) | 0.9 µM (≈ 0.333 µg/mL) | 1.7 µM (≈ 0.63 µg/mL) | 1.58 µM (≈ 0.585 µg/mL) | 1.27 µM (≈ 0.47 µg/mL) | 1.64 µM (≈ 0.608 µg/mL) | > 10% | – |
| CCCCN(C(C)=O)C(C(=O)NCc1ccc(OC)cc1)c1ccc(O)c(O)c1 (centres unmarked) [Compound 5q, 2-(N-butylacetamido)-2-(3,4-dihydroxyphenyl)-N-(4-methoxybenzyl)acetamide] | 0.91 µM (≈ 0.364 µg/mL) | 0.81 µM (≈ 0.324 µg/mL) | 0.83 µM (≈ 0.332 µg/mL) | 0.87 µM (≈ 0.348 µg/mL) | 1.44 µM (≈ 0.577 µg/mL) | 0.82 µM (≈ 0.328 µg/mL) | 0.84 µM (≈ 0.336 µg/mL) | 0.85 µM (≈ 0.34 µg/mL) | 0.79 µM (≈ 0.316 µg/mL) | 0.43 µM (≈ 0.172 µg/mL) | 0.81 µM (≈ 0.324 µg/mL) | 0.85 µM (≈ 0.34 µg/mL) | 1.58 µM (≈ 0.633 µg/mL) | 1.49 µM (≈ 0.597 µg/mL) | 1.13 µM (≈ 0.453 µg/mL) | 1.52 µM (≈ 0.609 µg/mL) | < 10% | 86.9% |
| O=C(NCc1ccccc1)C(c1ccc(O)c(O)c1)N(C(=O)Cc1ccccc1)C1CCCCC1 (centres unmarked) [Compound 5d, N-benzyl-2-(N-cyclohexyl-2-phenylacetamido)-2-(3,4-dihydroxyphenyl)acetamide] | 0.74 µM (≈ 0.35 µg/mL) | 0.68 µM (≈ 0.321 µg/mL) | 0.63 µM (≈ 0.298 µg/mL) | 0.74 µM (≈ 0.35 µg/mL) | 1.07 µM (≈ 0.506 µg/mL) | 0.68 µM (≈ 0.321 µg/mL) | 0.68 µM (≈ 0.321 µg/mL) | 0.76 µM (≈ 0.359 µg/mL) | 0.74 µM (≈ 0.35 µg/mL) | 0.36 µM (≈ 0.17 µg/mL) | 0.74 µM (≈ 0.35 µg/mL) | 0.75 µM (≈ 0.354 µg/mL) | 1.29 µM (≈ 0.61 µg/mL) | 1.45 µM (≈ 0.685 µg/mL) | 0.92 µM (≈ 0.435 µg/mL) | 1.06 µM (≈ 0.501 µg/mL) | > 10% | – |
